According to patent US11512091B2, “Crystal of benzoxazole derivative” (MEIJI SEIKA PHARMA CO., LTD., priority 2018, dated 2022):

Tests used:
[1] = Stability test (storage of crystals, chemical purity by HPLC); format: physicochemical; settings: for chemical stability (in words): thermal stability test, photostability test, accelerated stability test
Experimental: The I type crystal and the II type crystal of the compound represented by formula (1) were put in glass bottles (in about 300 mg each) and stored under various conditions. After the storage period, the chemical purity of the samples taken out was measured by HPLC. The conditions of each test were as follows.
Thermal stability test: 60° C., hermetically sealed, a period of 3 weeks
Photostability test: 25° C., 1.2 million lux hours (2,000 lux, for 25 days)
Accelerated stability test (hermetically sealed): 40° C., 75% RH*, a period of 1 month
Accelerated stability test (opened): 40° C., 75% RH*, a period of 1 month
As the result of evaluation of each stability, the amount of the compound represented by formula (1) contained in the crystal is presented in Table 1 as a residual ratio (a HPLC area percentage ratio to the initial value, expressed in percentage).

[2] = Hygroscopicity test (isothermal water vapor adsorption, DVS); format: physicochemical; settings: at 95% RH, 25° C., relative to weight equilibrium value at 0% RH
Experimental: Isothermal adsorption measurement of the I type crystal and the II type crystal of the compound represented by formula (1) was performed, using a water vapor adsorption measurement instrument (available from Surface Measurement Systems Ltd., DVS ADVANTAGE 1) (with a sample of about 10 mg, at 25° C., at from 0% RH through 95% RH). As the result of evaluation of hygroscopicity, a weight increase rate at 95% RH (weight increase from initial value/initial value×100, *initial value: weight equilibrium value at 0% RH) is presented in Table 2.

PDE4 = assay: Evaluation of PDE4 inhibition (Scintillation Proximity Assay); format: biochemical; settings: SPA, [3H]-cAMP, room temperature 120 minutes; read-out: PDE4 inhibiting activity (the concentration at an inhibition rate of 50%)
Experimental: The PDE4 inhibiting activity was measured in the following manner, employing Scintillation Proximity Assay (SPA). The specimen compound dissolved in dimethyl sulfoxide and diluted 10 fold with a buffer solution for reaction containing 50 mM Tris-HCl (pH of 7.4), 8.3 mMMgCl2, 1.7 mM EGTA, and 3 mg/mL bovine serum albumin (BSA) was added in 10 microliters in a 96-well assay plate. After PDE4 diluted 375 fold with the buffer solution for reaction was further added in 50 microliters, a [2,8-^3H]-Adenosine-3′,5′-cyclic phosphate triethylammonium salt diluted 1,000 fold with the buffer solution for reaction was added in 40 microliters, and the resultant was left to stand still at room temperature for 120 minutes. […] Subsequently, radioactivity was measured with a liquid scintillation counter for a 96-well plate. The inhibition rate of the compound represented by formula (1) to a control was calculated according to the following calculation formula, where the blank was prepared as the buffer solution for reaction only, with no enzyme preparation, and the control was prepared with the enzyme preparation and with only dimethyl sulfoxide instead of the specimen solution. […]

[3] = Accelerated stability test (hermetically sealed): 40° C., 75% RH, 1 month
[4] = Accelerated stability test (opened): 40° C., 75% RH, 1 month
[5] = Photostability test: 25° C., 1.2 million lux hours (2,000 lux, 25 days)
[6] = Thermal stability test: 60° C., hermetically sealed, 3 weeks

SMILES	Residual ratio (%) of compound represented by formula (1) [1, 3] [%]	Residual ratio (%) of compound represented by formula (1) [1, 4] [%]	Residual ratio (%) of compound represented by formula (1) ([1]; Initial value) [%]	Residual ratio (%) of compound represented by formula (1) [1, 5] [%]	Residual ratio (%) of compound represented by formula (1) [1, 6] [%]	chemical stability (in words) [1]	Weight increase rate (%) [2] [%]	IC50 (PDE4) [nM]
CC(C)(O)C(F)(F)Oc1ccc(-c2nccs2)c2oc(N3CC4CC(C3)N4)nc12 [II type crystal, 1-((2-(3,6-diazabicyclo[3.1.1]heptan-3-yl)-7-(thiazol-2-yl)benzo[d]oxazol-4-yl)oxy)-1,1-difluoro-2-methylpropan-2-ol]	100.1	100.0	100.0	99.5	100.0	sufficient chemical stability	10.7	–
CC(C)(O)C(F)(F)Oc1ccc(-c2nccs2)c2oc(N3CC4CC(C3)N4)nc12 [compound represented by formula (1), 1-((2-(3,6-diazabicyclo[3.1.1]heptan-3-yl)-7-(thiazol-2-yl)benzo[d]oxazol-4-yl)oxy)-1,1-difluoro-2-methylpropan-2-ol]	–	–	–	–	–	–	–	< 100
CC(C)(O)C(F)(F)Oc1ccc(-c2nccs2)c2oc(N3CC4CC(C3)N4)nc12 [I type crystal, 1-((2-(3,6-diazabicyclo[3.1.1]heptan-3-yl)-7-(thiazol-2-yl)benzo[d]oxazol-4-yl)oxy)-1,1-difluoro-2-methylpropan-2-ol]	100.1	100.1	100.0	100.1	99.8	sufficient chemical stability	0.6	–
